Patent US8334268B2, “Insecticidal active ingredient combinations (formononetins + insecticides)” (priority 2006, dated 2012)

Test system: Meloidogyne incognita
Assay: Meloidogyne incognita test (MELGIN), gall formation on lettuce roots
Format: in vivo
Settings: 0.5 mg ai/seed, lettuce seed dressing; nematicidal action by formation of galls; 100% = no galls
Experimental: To produce a suitable preparation of active compound, 1 part by weight of active compound is mixed with the stated amounts of solvent and emulsifier, and the concentrate is diluted with water to the desired concentration.
Lettuce seeds are dressed with the desired amount of formononetin. Vessels are filled with soil infected with mycorrhiza, active compound solution, Meloidogyne incognita egg/larvae suspension and the treated lettuce seeds. The lettuce seeds germinate and the plants develop. On the roots, galls are formed.
After the desired period of time, the nematicidal action is determined in % by the formation of galls. 100% means that no galls have been found; 0% means that the number of galls on the treated plants corresponds to that of the untreated control.

With COc1ccc(-c2coc3cc(O)ccc3c2=O)cc1 [Formononetin of the formula (I), formononetin] the “Effect in % after 21 d” value was 3.3%.
